Experimental data as given in US20240041042A1, “1-(PYRIDYL)-5-AZINYLPYRAZOLE DERIVATIVES, AND THEIR USE FOR CONTROL OF UNDESIRED PLANT GROWTH” (Bayer Aktiengesellschaft, priority 2020, published 2024).
Read-outs that look alike come from different tables or passages of the source.

What was measured:
Assay type in all cases: in vivo
[1] = system: Setaria viridis (SETVI); test: Pre-emergence herbicidal action against SETVI; details: dosage 320 g/ha
Summary of the method: (§1)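 Greenhouse pot trial: seeds sown, soil-covered, sprayed before emergence with compound in water (0.5% additive; 600 l/ha; ≤320 g/ha). Scoring visual, ~3 weeks, 0–100% scale vs untreated.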

[2] = system: Echinochloa crus-galli (ECHCG); test: Post-emergence herbicidal action against ECHCG
Summary of the method: (§2)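 Doses of 320 g/ha or lower, suffixes a, b and c marking different dosages, were applied post-emergence at the one-leaf stage in 600 l/ha water with 0.5% additive. Damage was assessed visually after about 3 weeks in the greenhouse.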

[3] = system: Setaria viridis (SETVI); test: Post-emergence herbicidal action against SETVI
Summary of the method: as §2

[4] = system: Pharbitis purpurea (PHBPU); test: Pre-emergence herbicidal action against PHBPU; details: dosage 320 g/ha
Summary of the method: as §1

[5] = system: Verconica persica (VERPE); test: Post-emergence herbicidal action against VERPE
Summary of the method: as §2

[6] = system: Triticum aestivum (TRZAS); details: pre-emergence, crop plant compatibility, in comparison to untreated controls
Summary of the method: (§3)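 Scoring: visual, % of untreated control, about 3 weeks after a pre-emergence application to the soil surface. Application used WP or EC formulations diluted in water with 0.5% additive at 600 l/ha; dosage levels are marked by suffixes a, b and c.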

[7] = system: Oryza sativa (ORYSA); details: pre-emergence, crop plant compatibility, in comparison to untreated controls
Summary of the method: as §3

[8] = system: Zea mays (ZEAMX); details: pre-emergence, 80 g/ha, crop plant compatibility, in comparison to untreated controls
Summary of the method: as §3

[9] = system: Lolium rigidum (LOLRI); test: Pre-emergence herbicidal action against LOLRI; details: dosage 320 g/ha
Summary of the method: as §1

[10] = system: Matricaria inodora (MATIN); test: Pre-emergence herbicidal action against MATIN; details: dosage 320 g/ha
Summary of the method: as §1

[11] = system: Amaranthus retroflexus (AMARE); test: Pre-emergence herbicidal action against AMARE; details: 320 g/ha, visual scoring after about 3 weeks vs untreated controls
Summary of the method: as §1

[12] = system: Lolium rigidum (LOLRI); test: Post-emergence herbicidal action against LOLRI; details: dosage 320 g/ha
Summary of the method: as §2

[13] = system: Pharbitis purpurea (PHBPU); test: Post-emergence herbicidal action against PHBPU
Summary of the method: as §2

[14] = system: Triticum aestivum (TRZAS); details: crop plant compatibility, effect vs untreated controls
Summary of the method: (§4)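 Percent effect on the crop was judged by eye against untreated controls, where 0% means like control and 100% means dead plants. Plants had been sprayed post-emergence at the one-leaf stage and then kept under optimum greenhouse conditions for about 3 weeks.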

[15] = system: Oryza sativa (ORYSA); details: crop plant compatibility
Summary of the method: as §4

[16] = system: Zea mays (ZEAMX); details: for Post-emergence action against ZEAMX in %: crop plant compatibility, effect vs untreated controls
Summary of the method: as §4

[17] = system: Viola tricolor (VIOTR); test: Pre-emergence herbicidal action against VIOTR
Summary of the method: as §1

[18] = system: Digitaria sanguinalis (DIGSA); test: Pre-emergence herbicidal action against DIGSA
Summary of the method: as §1

[19] = system: Alopecurus myosuroides (ALOMY); test: Post-emergence herbicidal action against ALOMY; details: visual rating about 3 weeks after treatment vs untreated controls (100% = plants have died, 0% = like control plants)
Summary of the method: as §2

[20] = system: Amaranthus retroflexus (AMARE); test: Post-emergence herbicidal action against AMARE
Summary of the method: as §2

[21] = system: Abutilon theophrasti (ABUTH); test: Post-emergence herbicidal action against ABUTH; details: visual rating about 3 weeks after treatment vs untreated controls (100% = plants have died, 0% = like control plants)
Summary of the method: as §2

[22] = system: Polygonum convolvulus (POLCO); test: Pre-emergence herbicidal action against POLCO
Summary of the method: as §1

[23] = system: Avena fatua (AVEFA); test: Pre-emergence herbicidal action against AVEFA; details: 320 g/ha, visual scoring after about 3 weeks vs untreated controls
Summary of the method: as §1

[24] = system: Echinochloa crus-galli (ECHCG); test: Pre-emergence herbicidal action against ECHCG
Summary of the method: as §1

[25] = system: Alopecurus myosuroides (ALOMY); test: Pre-emergence herbicidal action against ALOMY; details: 320 g/ha; scored visually after about 3 weeks; 100% = plants have died
Summary of the method: as §1

[26] = system: Polygonum convolvulus (POLCO); test: Post-emergence herbicidal action against POLCO; details: dosage 320 g/ha
Summary of the method: as §2

[27] = system: Viola tricolor (VIOTR); test: Post-emergence herbicidal action against VIOTR; details: 320 g/ha
Summary of the method: as §2

[28] = system: Verconica persica (VERPE); test: Pre-emergence herbicidal action against VERPE
Summary of the method: as §1

[29] = 80 g/ha, effect in comparison to untreated controls
[30] = 320 g/ha, effect in comparison to untreated controls
[31] = 320 g/ha, visual rating about 3 weeks after treatment

Pre-emergence action against TRZAS in % ([6]; 80 g/ha) [%] | Pre-emergence action against ORYSA in % ([7]; 80 g/ha) [%] | Pre-emergence action against ZEAMX in % [8] [%] | Post-emergence action against TRZAS in % ([14]; 80 g/ha) [%] | Post-emergence action against ORYSA in % [15, 29] [%] | Post-emergence action against ORYSA in % [15, 30] [%] | Post-emergence action against ZEAMX in % ([16]; 80 g/ha) [%] | Structure (SMILES) | Pre-emergence action against SETVI in % [1] [%] | Post-emergence action against ECHCG in % ([2]; dosage 320 g/ha) [%] | Post-emergence action against SETVI in % ([3]; dosage 320 g/ha) [%] | Pre-emergence action against PHBPU in % [4] [%] | Post-emergence action against VERPE in % ([5]; 320 g/ha, VERPE) [%] | Post-emergence action against VERPE in % ([5]; dosage 80 g/ha) [%] | Pre-emergence action against LOLRI in % [9] [%] | Pre-emergence action against MATIN in % [10] [%] | Pre-emergence action against AMARE in % [11] [%] | Post-emergence action against LOLRI in % [12] [%] | Post-emergence action against PHBPU in % ([13]; dosage 80 g/ha) [%] | Post-emergence action against PHBPU in % ([13]; dosage 320 g/ha) [%] | Pre-emergence action against ECHCG in % ([24]; dosage 320 g/ha) [%] | further results
0 | 0 | 0 | 0 | 0 | 10 | 20 | COC(=O)CCOC(=O)COc1nn(-c2cccc(C)n2)c(-c2ccc(F)nc2)c1Br [Example I-278] | 100 | 80 | 90 | 80 | 90 | 80 | 80 | 80 | 80 | 80 | 80 | 80 | – | –
20 | 10 | – | – | 10 | – | – | O=C(COc1nn(-c2ccccn2)c(-c2ccc(F)nc2)c1Cl)NS(=O)(=O)CC(F)(F)F [Example I-119] | 100 | – | – | – | – | 80 | 100 | 90 | 100 | – | 80 | – | 100 | Pre-emergence action against VIOTR in % ([17]; 320 g/ha, Viola tricolor): 90%; Pre-emergence action against VIOTR in % ([17]; dosage 80 g/ha): 80%; Pre-emergence action against DIGSA in % ([18]; 80 g/ha, visual scoring after about 3 weeks vs untreated controls): 100%; Pre-emergence action against DIGSA in % ([18]; dosage 320 g/ha): 100%; Post-emergence action against ALOMY in % ([19]; 80 g/ha): 90%; Post-emergence action against AMARE in % ([20]; 80 g/ha, visual rating about 3 weeks after treatment vs untreated controls (100% = plants have died, 0% = like control plants)): 90%; Post-emergence action against ABUTH in % ([21]; 80 g/ha): 80%; Post-emergence action against ECHCG in % ([2]; dosage 80 g/ha): 80%; Pre-emergence action against POLCO in % ([22]; dosage 80 g/ha): 80%; Pre-emergence action against POLCO in % ([22]; dosage 320 g/ha): 90%; Pre-emergence action against AVEFA in % [23]: 80%; Pre-emergence action against ECHCG in % ([24]; dosage 80 g/ha): 80%; Post-emergence action against SETVI in % ([3]; dosage 80 g/ha): 80%; Pre-emergence action against ALOMY [25]: 100%; Post-emergence action against TRZAS in % ([14]; 20 g/ha): 20%; Post-emergence action against ORYSA in % ([15]; 20 g/ha, effect vs untreated controls): 0%; Post-emergence action against ZEAMX in % (crop plant compatibility) ([16]; 20 g/ha, ZEAMX, effect in comparison to untreated controls): 10%
0 | 0 | 20 | 20 | 0 | 20 | 10 | O=C(O)COc1nn(-c2ccnc(F)c2)c(-c2ccc(F)nc2)c1Br [III-02] | 80 | – | – | – | – | – | – | – | 80 | – | – | – | – | Post-emergence action against AMARE in % [20, 31]: 80%; Pre-emergence action against TRZAS in % ([6]; 320 g/ha): 20%; Pre-emergence action against ORYSA in % ([7]; 320 g/ha): 0%; Post-emergence action against ZEAMX in % ([16]; 320 g/ha): 20%
10 | 20 | 10 | 0 | 0 | 20 | 10 | Cc1cccc(-n2nc(OCC(=O)O)c(Br)c2-c2ccc(F)nc2)n1 [Example I-376] | 100 | 90 | 80 | 90 | 80 | – | 90 | 80 | 90 | 90 | – | 80 | 90 | Post-emergence action against POLCO in % [26]: 80%; Post-emergence action against ALOMY in % ([19]; 320 g/ha): 80%; Post-emergence action against AMARE in % [20, 31]: 80%; Post-emergence action against VIOTR in % [27]: 80%; Post-emergence action against ABUTH in % ([21]; 320 g/ha): 80%; Pre-emergence action against VERPE in % ([28]; dosage 80 g/ha): 80%; Pre-emergence action against VERPE in % ([28]; dosage 320 g/ha): 80%; Pre-emergence action against ALOMY [25]: 80%; Post-emergence action against TRZAS in % ([14]; 320 g/ha): 20%
